The record followed here is patent publication US4285941A, “Cephalosporin compounds and antibacterial drugs containing the same” (Eisai Co., Ltd., priority 1979, dated 1981).

By MIC is commonly meant the lowest concentration that inhibits growth of the organism.

Bounds are passed on as bounds.

Common to all, as to assay: Minimal inhibitory concentration (MIC), standard agar dilution method
Type in all cases: cell-based
A general note: In agar dilution, organisms are placed on agar that contains the substance at set levels.

The test system of one experiment is Escherichia coli NIHJ. As to conditions: Mueller Hinton agar, 37° C., 18 hours, Examples 1, 2, 4, 5, 6, 8 and 22 as sodium salts, others as free carboxylic acids. On the procedure:
(§1) The compounds obtained in these examples were tested for their antibacterial activities in vitro. Minimal inhibitory concentration (MIC) was determined by the standard agar dilution method of the Japan Society of Chemotherapy. Compounds were dissolved in appropriate solvents (sterilized water for sodium salts and acetone-water [1:1] for free acids) and serial two-fold dilutions were made. Sodium salt of Cefazolin was chosen as the control compound. One-ml aliquots of each dilution were mixed with 9 ml of Mueller Hinton agar in petri-dishes to make agar plates containing the compound at serially diluted concentrations. After agar hardened, plates were put in an incubator at 37° C. for 1.5-2 hours with the lids slightly open to evaporate acetone off the plates. Test organisms were grown for 18 hours at 37° C. in Trypticase Soy broth and diluted in saline to approximately 10^6 colony forming units per ml. A loopful of each cell suspension was applied on the agar plate mentioned above and the plates were incubated for 18 hours at 37° C. before MIC was determined. MIC values of the compounds of Examples 1, 2, 4, 5, 6, 8 and 22 were determined as their sodium salts and those of other compounds as free carboxylic acids.

For experiment [1], the system named is Klebsiella pneumoniae EK-6. As to conditions: EK6, Mueller Hinton agar, 37° C., 18 hours, Examples 1, 2, 4, 5, 6, 8 and 22 as sodium salts, others as free carboxylic acids. On the procedure:
as §1

For a further experiment, the system named is Proteus morganii EP-14. To be noted: Morganella morganii, EP14; Mueller Hinton agar, 37° C., 18 hours; Examples 1, 2, 4, 5, 6, 8 and 22 as sodium salts, others as free carboxylic acids. As for the experimental part: as §1
For experiment [2], the system named is Pseudomonas aeruginosa EP-172. To be noted: EP172, Mueller Hinton agar, 37° C., 18 hours, Examples 1, 2, 4, 5, 6, 8 and 22 as sodium salts, others as free carboxylic acids. On the procedure: as §1
Experiment [3] deals with Serratia marcescens ES-75. To be noted: ES75, Mueller Hinton agar, 37° C., 18 hours, Examples 1, 2, 4, 5, 6, 8 and 22 as sodium salts, others as free carboxylic acids. On the procedure:
as §1

The test system of experiment [4] is Staphylococcus aureus 209-P. To be noted: Mueller Hinton agar, 37° C., 18 hours, Examples 1, 2, 4, 5, 6, 8 and 22 as sodium salts, others as free carboxylic acids. On the procedure: as §1

For `Cc1nnc(SCC2=C(C(=O)O)N3C(=O)[C@@H](NC(=O)[C@H](NC(=O)c4coc5cc(O)c(O)cc5c4=O)c4ccccc4)[C@H]3SC2)s1` [Example 2, 7β-[D-2-(6,7-Dihydroxychromone-3-carboxamido)-2-phenyl-acetamido]-3-[(5-methyl-1,3,4-thiadiazol-2-yl)thiomethyl]-3-cephem-4-carboxylic acid], the minimum inhibitory concentration (MIC) in the experiment on Escherichia coli NIHJ is 0.8 mg/L; in experiment [1] it was not above 0.1 mg/L; in the experiment with Proteus morganii EP-14, 0.8 mg/L; in experiment [2], 3.13 mg/L; in experiment [3], not above 0.1 mg/L; in experiment [4], 1.56 mg/L.
For the compound `Cn1nnnc1SCC1=C(C(=O)O)N2C(=O)[C@@H](NC(=O)[C@H](NC(=O)c3coc4cc(O)c(O)cc4c3=O)c3ccc(O)cc3)[C@H]2SC1` [Example 3, 7β-[D-2-(6,7-Dihydroxychromone-3-carboxamido)-2-(4-hydroxyphenyl)acetamido]-3-[(1-methyltetrazol-5-yl)thiomethyl]-3-cephem-4-carboxylic acid], the MIC with Escherichia coli NIHJ was 0.2 mg/L; in experiment [1], not above 0.1 mg/L; with Proteus morganii EP-14, 0.4 mg/L; in experiment [2], 0.4 mg/L; in experiment [3], not above 0.1 mg/L; in experiment [4] it was 0.8 mg/L.
`CC(=O)Oc1cc2occ(C(=O)N[C@@H](C(=O)N[C@@H]3C(=O)N4C(C(=O)O)=C(CSc5nnc(C)s5)CS[C@H]34)c3ccccc3)c(=O)c2cc1OC(C)=O` [Example 6, 7β-[D-2-(6,7-Diacetoxychromone-3-carboxamido)-2-phenylacetamido]-3-[(5-methyl-1,3-4-thiadiazol-2-yl)thiomethyl]-3-cephem-4-carboxylic acid]: the MIC in the experiment on Escherichia coli NIHJ was 0.8 mg/L; in experiment [1], not above 0.1 mg/L; with Proteus morganii EP-14 it was 0.8 mg/L; in experiment [2], 3.13 mg/L; in experiment [3], not above 0.1 mg/L; in experiment [4], 1.56 mg/L.
For the compound `CC(=O)Oc1cc2occ(C(=O)N[C@@H](C(=O)N[C@@H]3C(=O)N4C(C(=O)O)=C(CSc5nnnn5C)CS[C@H]34)c3ccc(O)cc3)c(=O)c2cc1OC(C)=O` [Example 7, 7β-[D-2-(6,7-Diacetoxychromone-3-carboxamido)-2-(4-hydroxyphenyl)acetamido]-3-[(1-methyltetrazol-5-yl)thiomethyl]-3-cephem-4-carboxylic acid], the MIC was not above 0.1 mg/L in the experiment on Escherichia coli NIHJ; not above 0.1 mg/L in experiment [1]; 0.4 mg/L in the experiment on Proteus morganii EP-14; 0.4 mg/L in experiment [2]; not above 0.1 mg/L in experiment [3]; 1.56 mg/L in experiment [4].
In the case of `CC(=O)Oc1cc2occ(C(=O)N[C@@H](C(=O)N[C@@H]3C(=O)N4C(C(=O)O)=C(CSc5nnc(C)s5)CS[C@H]34)c3ccc(O)cc3)c(=O)c2cc1OC(C)=O` [Example 8, 7β-[D-2-(6,7-Diacetoxychromone-3-carboxamido)-2-(4-hydroxyphenyl)acetamido]-3-[(5-methyl-1,3,4-thiadiazol-2-yl)thiomethyl]-3-cephem-4-carboxylic acid], the MIC in the experiment on Escherichia coli NIHJ is 0.8 mg/L; in experiment [1], not above 0.1 mg/L; with Proteus morganii EP-14, 1.56 mg/L; in experiment [2], 1.56 mg/L; in experiment [3], not above 0.1 mg/L; in experiment [4] it was 3.13 mg/L.
On to `Cn1nnnc1SCC1=C(C(=O)O)N2C(=O)[C@@H](NC(=O)[C@H](NC(=O)c3coc4c(O)c(O)ccc4c3=O)c3ccc(O)cc3)[C@H]2SC1` [Example 9, 7β-[D-2-(7,8-Dihydroxychromone-3-carboxamido)-2-(4-hydroxyphenyl)acetamido]-3-[(1-methyltetrazol-5-yl)thiomethyl]-3-cephem-4-carboxylic acid], for which the minimum inhibitory concentration (MIC) with Escherichia coli NIHJ is 1.56 mg/L; in experiment [1], not above 0.1 mg/L; with Proteus morganii EP-14, 12.5 mg/L; in experiment [2] it was 6.25 mg/L; in experiment [3] it was 3.13 mg/L; in experiment [4], 0.8 mg/L.
For the compound `CC(=O)Oc1ccc2c(=O)c(C(=O)N[C@@H](C(=O)N[C@@H]3C(=O)N4C(C(=O)O)=C(CSc5nnc(C)s5)CS[C@H]34)c3ccccc3)coc2c1OC(C)=O` [Example 10, 7β-[D-2-(7,8-Diacetoxychromone-3-carboxamido)-2-phenyl-acetamido]-3-[(5-methyl-1,3,4-thiadiazol-2-yl)thiomethyl]-3-cephem-4-carboxylic acid], the minimal inhibitory concentration (MIC) was 0.8 mg/L in the experiment with Escherichia coli NIHJ; not above 0.1 mg/L in experiment [1]; 1.56 mg/L in the experiment on Proteus morganii EP-14; 1.56 mg/L in experiment [2]; 0.2 mg/L in experiment [3]; 0.8 mg/L in experiment [4].
Consider `CC(=O)Oc1ccc2c(=O)c(C(=O)N[C@@H](C(=O)N[C@@H]3C(=O)N4C(C(=O)O)=C(CSc5nnnn5C)CS[C@H]34)c3ccc(O)cc3)coc2c1OC(C)=O` [Example 11, 7β-[D-2-(7,8-Diacetoxychromone-3-carboxamido)-2-(4-hydroxyphenyl)acetamido] -3-[(1-methyltetrazol-5-yl)thiomethyl]-3-cephem-4-carboxylic acid], for which the MIC is 0.8 mg/L with Escherichia coli NIHJ; not above 0.1 mg/L in experiment [1]; 25 mg/L in the experiment with Proteus morganii EP-14; 6.25 mg/L in experiment [2]; 1.56 mg/L in experiment [3]; 0.8 mg/L in experiment [4].
On to `CC(=O)Oc1ccc2c(=O)c(C(=O)N[C@@H](C(=O)N[C@@H]3C(=O)N4C(C(=O)O)=C(CSc5nnc(C)s5)CS[C@H]34)c3ccc(O)cc3)coc2c1OC(C)=O` [Example 12, 7β[D-2-(7,8-Diacetoxychromone-3-carboxamido)-2-(4-hydroxyphenyl)acetamido]-3-[(5-methyl-1,3,4-thiadiazol-2-yl)thiomethyl]-3-cephem-4-carboxylic acid], for which the MIC was 1.56 mg/L in the experiment with Escherichia coli NIHJ; not above 0.1 mg/L in experiment [1]; 3.13 mg/L with Proteus morganii EP-14; 1.56 mg/L in experiment [2]; 0.2 mg/L in experiment [3]; 1.56 mg/L in experiment [4].
In the case of `Cn1nnnc1SCC1=C(C(=O)O)N2C(=O)[C@@H](NC(=O)[C@H](NC(=O)c3coc4cc(O)ccc4c3=O)c3ccc(O)cc3)[C@H]2SC1` [Example 13, 7β-[D-2-(7-Hydroxychromone-3-carboxamido)-2-(4-hydroxyphenyl)acetamido]-3-[(1-methyltetrazol-5-yl)thiomethyl]-3-cephem-4-carboxylic acid], the minimum inhibitory concentration (MIC) with Escherichia coli NIHJ came to 6.25 mg/L; in experiment [1], 12.5 mg/L; in the experiment with Proteus morganii EP-14, 25 mg/L; in experiment [2], 50 mg/L; in experiment [3] it was 12.5 mg/L; in experiment [4] it was 0.4 mg/L.
Consider `Cn1nnnc1SCC1=C(C(=O)O)N2C(=O)[C@@H](NC(=O)[C@H](NC(=O)c3coc4ccccc4c3=O)c3ccc(O)cc3)[C@H]2SC1` [Example 15, 7β-[D-2-(Chromone-3-carboxamido)-2-(4-hydroxyphenyl)acetamido]-3-[(1-methyltetrazol-5-yl)thiomethyl]-3-cephem-4-carboxylic acid], for which the MIC was 6.25 mg/L with Escherichia coli NIHJ; 12.5 mg/L in experiment [1]; 25 mg/L in the experiment on Proteus morganii EP-14; 100 mg/L in experiment [2]; 25 mg/L in experiment [3]; 0.4 mg/L in experiment [4].
Consider `Cn1nnnc1SCC1=C(C(=O)O)N2C(=O)[C@@H](NC(=O)[C@H](NC(=O)c3coc4ccccc4c3=O)c3ccccc3)[C@H]2SC1` [Example 16, 7β-[D-2-(Chromone-3-carboxamido)-2-phenylacetamido]-3-[(1-methyltetrazol-5-yl)thiomethyl]-3-cephem-4-carboxylic acid], for which the MIC with Escherichia coli NIHJ is 6.25 mg/L; in experiment [1] it was 6.25 mg/L; in the experiment on Proteus morganii EP-14 it was 6.25 mg/L; in experiment [2], 25 mg/L; in experiment [3], 3.13 mg/L; in experiment [4] it was not above 0.1 mg/L.
`O=C(O)C1=C(CSc2nncs2)CS[C@@H]2[C@H](NC(=O)[C@H](NC(=O)c3coc4cc(O)c(O)cc4c3=O)c3ccc(O)cc3)C(=O)N12` [Example 19, 7β-[D-2-(6,7-Dihydroxychromone-3-carboxamido)-2-(4-hydroxyphenyl)acetamido]-3-[(1,3,4-thiadiazol-2-yl)thiomethyl]-3-cephem-4-carboxylic acid]: the MIC in the experiment on Escherichia coli NIHJ was 0.4 mg/L; in experiment [1], not above 0.1 mg/L; with Proteus morganii EP-14, 12.5 mg/L; in experiment [2], 0.4 mg/L; in experiment [3] it was 0.2 mg/L; in experiment [4] it was 0.8 mg/L.
For `CCn1nnnc1SCC1=C(C(=O)O)N2C(=O)[C@@H](NC(=O)[C@H](NC(=O)c3coc4cc(O)c(O)cc4c3=O)c3ccc(O)cc3)[C@H]2SC1` [Example 20, 7β-[D-2-(6,7-Dihydroxychromone-3-carboxamido)-2-(4-hydroxyphenyl)acetamido]-3-[(1-ethyltetrazol-5-yl)thiomethyl]-3-cephem-4-carboxylic acid], the MIC with Escherichia coli NIHJ is 0.2 mg/L; in experiment [1] it was not above 0.1 mg/L; in the experiment on Proteus morganii EP-14 it was 3.13 mg/L; in experiment [2], 0.2 mg/L; in experiment [3] it was not above 0.1 mg/L; in experiment [4], 0.8 mg/L.
